According to patent EP0745595A1, “3-(3-Aryloxyphenyl)-1-(substituted methyl)-s-triazine-2,4,6-oxo or thiotrione herbicidal agents” (American Cyanamid Company, priority 1995, dated 1996):

What was measured:
Type in all cases: in vivo
[1] = tested on: ABUTILON THEOPHRASTI, MEDIC.; assay: Preemergence herbicidal evaluation, ABUTH (Velvetleaf); settings: rated four to five weeks after treatment
Excerpt: (§1) Results of herbicide evaluation are expressed on a rating scale (0-9). The scale is based upon a visual observation of plant stand, vigor, malformation, size, chlorosis and overall plant appearance as compared with a control.
(§2) The preemergence herbicidal activity of the test compounds of the present invention is exemplified by the following tests in which the seeds of a variety of monocotyledonous and dicotyledonous plants are separately mixed with potting soil and planted on top of approximately one inch of soil in separate pint cups. […] The treated cups are then placed on greenhouse benches, watered and cared for in accordance with conventional greenhouse procedures. From four to five weeks after treatment, the tests are terminated and each cup is examined and rated according to the rating system provided in Example 40.
(§3) The compounds evaluated are reported by compound number given in Example 40.

[2] = tested on: CYPERUS SEROTINUS, ROTTB.; assay: Preemergence weed control under flooded paddy conditions, CYPSE (Flatsedge); settings: preemergence, 3-4 weeks after treatment
In short: (§4)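 Flooded paddy preemergence test: seeds/propagating organs in top 0.5 cm silt loam, water held 1.5-3 cm above soil. Dosing by pipette into flood water, aqueous/acetone 50/50 v/v, ~0.5, 0.25, 0.125, 0.063 kg/ha a.i. Greenhouse; read at 3-4 wk, 0-9 visual scale.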

IPOMOEA SPP. = assay: Preemergence herbicidal evaluation, IPOSS (Morningglory spp.); settings: rated four to five weeks after treatment
Excerpt: as §1, §2, §3

[3] = tested on: ECHINOCHLOA CRUS-GALLI, (L) BEAU; assay: Preemergence herbicidal evaluation, ECHCG (Barnyardgrass); settings: rated four to five weeks after treatment
In short: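 Barnyardgrass seeds were mixed with potting soil and planted on about one inch of soil in pint cups for preemergence testing. Treated cups were kept on greenhouse benches, watered and maintained by standard greenhouse practice. After four to five weeks, each cup was visually rated on a 0-9 scale against an untreated control.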

[4] = tested on: SETARIA VIRIDIS, (L) BEAU; assay: Preemergence herbicidal evaluation, SETVI (Foxtail, Green); settings: rated four to five weeks after treatment
Excerpt: as §1, §2, §3

[5] = tested on: ORYZA SATIVA, L. TEBONNET; assay: Rice tolerance to post-transplant applications under flooded paddy conditions, ORYSAT (Rice, Tebonnet); settings: post-transplant rice, 3-4 weeks after treatment
In short: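 Post-transplant paddy test: compound applied 3 d after transplanting to flooded soil (1.5-3 cm water), ~0.063-0.5 kg/ha a.i., 50/50 aq/acetone. Silt loam, 2 × 10-d seedlings/pot. Greenhouse 3-4 wk, visual 0-9 score vs control.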

CASSIA OBTUSIFOLIA, L. = assay: Preemergence herbicidal evaluation, CASOB (Sicklepod); settings: rated four to five weeks after treatment
In short: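 Seeds of various monocot and dicot plants, including sicklepod, were each mixed with potting soil and sown on roughly one inch of soil in separate pint cups for preemergence testing. Treated cups were kept on greenhouse benches, watered and maintained conventionally. Four to five weeks after treatment, each cup was visually rated on a 0-9 scale against a control.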

CYPERUS IRIA = assay: Preemergence weed control under flooded paddy conditions, CYPIR (Rice Flatsedge); settings: preemergence, 3-4 weeks after treatment
In short: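 Seeds or propagating organs of rice flatsedge were planted in the top 0.5 cm of silt loam soil in 32 oz. plastic containers, 10.5 cm across and without drainage holes. Water was kept 1.5 to 3 cm above the soil throughout. Treated containers were kept on greenhouse benches, and herbicidal effect was visually rated on a 0-9 scale against a control.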

[6] = tested on: AMBROSIA ARTEMISIIFOLIA, L.; assay: Preemergence herbicidal evaluation, AMBEL (Ragweed, Common); settings: rated four to five weeks after treatment
In short: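 Preemergence, greenhouse: seed + potting soil sown on ~1 inch soil in cups; aqueous acetone spray, ~0.125–0.50 kg/ha equivalent; rated 0-9 vs control at 4–5 wk.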

SAGITTARIA PYGMAEA, L. = assay: Preemergence weed control under flooded paddy conditions, SAGPY (Arrowhead (Pygmaea)); settings: preemergence, 3-4 weeks after treatment
In short: as §4

SMILES: COC(=O)Cn1c(=O)n(C)c(=O)n(-c2cc(Oc3c(Cl)cccc3Cl)ccc2[N+](=O)[O-])c1=O [Compound 37, Methyl 3-[5-(2,6-dichlorophenoxy)-2-nitrophenyl]tetrahydro-5-methyl-2,4,6-trioxo-s-triazine-1(2H)-acetate]
- ABUTH herbicidal rating ([1]; Rate 0.125 kg/ha): 0.0
- ABUTH herbicidal rating ([1]; Rate 0.250 kg/ha): 0.0
- ABUTH herbicidal rating ([1]; Rate 0.500 kg/ha): 0.0
- Herbicidal effect rating, CYPSE ([2]; 0.063 kg/ha): 0.0
- Herbicidal effect rating, CYPSE ([2]; 0.125 kg/ha): 0.0
- Herbicidal effect rating, CYPSE ([2]; 0.250 kg/ha): 0.0
- Herbicidal effect rating, CYPSE ([2]; 0.500 kg/ha): 0.0
- IPOSS herbicidal rating (IPOMOEA SPP.; Rate 0.125 kg/ha): 0.0
- IPOSS herbicidal rating (IPOMOEA SPP.; Rate 0.250 kg/ha): 0.0
- IPOSS herbicidal rating (IPOMOEA SPP.; Rate 0.500 kg/ha): 0.0
- ECHCG herbicidal rating ([3]; Rate 0.125 kg/ha): 0.0
- ECHCG herbicidal rating ([3]; Rate 0.250 kg/ha): 0.0
- ECHCG herbicidal rating ([3]; Rate 0.500 kg/ha): 0.0
- SETVI herbicidal rating ([4]; Rate 0.125 kg/ha): 0.0
- SETVI herbicidal rating ([4]; Rate 0.250 kg/ha): 0.0
- SETVI herbicidal rating ([4]; Rate 0.500 kg/ha): 0.0
- Herbicidal effect rating, ORYSAT ([5]; 0.063 kg/ha): 0.0
- Herbicidal effect rating, ORYSAT ([5]; 0.125 kg/ha): 1.0
- Herbicidal effect rating, ORYSAT ([5]; 0.250 kg/ha): 1.0
- Herbicidal effect rating, ORYSAT ([5]; 0.500 kg/ha): 2.0
- CASOB herbicidal rating (CASSIA OBTUSIFOLIA, L.; Rate 0.125 kg/ha): 0.0
- CASOB herbicidal rating (CASSIA OBTUSIFOLIA, L.; Rate 0.250 kg/ha): 0.0
- CASOB herbicidal rating (CASSIA OBTUSIFOLIA, L.; Rate 0.500 kg/ha): 0.0
- Herbicidal effect rating, CYPIR (CYPERUS IRIA; 0.063 kg/ha): 0.0
- Herbicidal effect rating, CYPIR (CYPERUS IRIA; 0.125 kg/ha): 0.0
- Herbicidal effect rating, CYPIR (CYPERUS IRIA; 0.250 kg/ha): 0.0
- Herbicidal effect rating, CYPIR (CYPERUS IRIA; 0.500 kg/ha): 0.0
- AMBEL herbicidal rating ([6]; Rate 0.125 kg/ha): 0.0
- AMBEL herbicidal rating ([6]; Rate 0.250 kg/ha): 0.0
- AMBEL herbicidal rating ([6]; Rate 0.500 kg/ha): 0.0
- Herbicidal effect rating, SAGPY (SAGITTARIA PYGMAEA, L.; 0.063 kg/ha): 0.0
- Herbicidal effect rating, SAGPY (SAGITTARIA PYGMAEA, L.; 0.125 kg/ha): 0.0
- Herbicidal effect rating, SAGPY (SAGITTARIA PYGMAEA, L.; 0.250 kg/ha): 0.0
- Herbicidal effect rating, SAGPY (SAGITTARIA PYGMAEA, L.; 0.500 kg/ha): 0.0
